Laboratory results published in patent US6310065A, “Pyridazinone hydrochloride compound and method for producing the same” (Nissan Chemical Industries, Ltd., priority 1998, dated 2001).
Structures can show the parent of a compound that is named as a salt.

Experiments:
[1] = Physical properties and stability of the hydrochlorides, stated in words
[2] = Hygroscopic test under conditions of 25° C. and 75% RH (Test Example 1); assay type: physicochemical
Protocol: Hygroscopic test of 2-hydrochloride and 3/2-hydrochloride under conditions of 25° C. and 75% RH
A humidity conditioning solution was prepared by using a saturated aqueous solution of sodium chloride, and the solution thus prepared was placed in a humidistat, and temperature-moisture conditions at 25° C. were adjusted. 0.4 g of 2-hydrochloride and 0.2 g of 3/2-hydrochloride were weighed respectively in a weighing bottle to prepare test samples, and the test samples were subjected to hygroscopic test under the above adjusted temperature-moisture conditions to measure a water content and a decomposed material content as a lapse of time and to compare hygroscopicity and stability of the test samples.

[3] = Pharmaceutical effect, stated in words
[4] = Comparison of biological dynamics in a dog, 10 mg/kg oral administration by capsules; assay type: in vivo; details: for AUC (0-.infin.) / Cmax: 10 mg/kg oral administration by capsules, 10 mg/kg
Protocol: Further, the compound (1) and its 3/2-hydrochloride (2) were compared with regard to biological dynamics in a dog. […] Result: (10 mg/kg oral administration by capsules)

[5] = 10 mg/kg oral by capsules, ratio to compound (1)

SMILES: COc1ccc(CNc2cn[nH]c(=O)c2Cl)cc1OCC(=O)N1CCN(Cc2ccccc2)CC1 [1-hydrochloride]
- electrostatic charging of the crystal [1]: easily electrostatically charged
- hygroscopicity [1]: high hygroscopicity
- solubility [1]: poor in solubility

SMILES: COc1ccc(CNc2cn[nH]c(=O)c2Cl)cc1OCC(=O)N1CCN(Cc2ccccc2)CC1 [2-hydrochloride, 2-Hydrochloride of 4-chloro-5-[3-(4-benzylpiperazin-1-yl)carbonylmethoxy-4-methoxybenzylamino]-3 (2H) -pyridazinone]
- Water content ([2]; Time 0): 0.93%
- Water content ([2]; Time 1): 4.17%
- Increased decomposed material content ([2]; Time 24): 1.75%
- Water content ([2]; Time 24): 5.60%
- Increased decomposed material content ([2]; Time 48): 11.78%
- Water content ([2]; Time 48): 9.45%
- degraded ([2]; solid, 75% rh, Time 1, read-out: Increased decomposed material content): 0.08%
- pharmaceutical effect [3]: excellent pharmaceutical effect
- hygroscopicity [1]: highly hygroscopic
- decomposition in a methanol solvent ([1]; methanol solvent): rapidly decomposed in a methanol solvent

SMILES: COc1ccc(CNc2cn[nH]c(=O)c2Cl)cc1OCC(=O)N1CCN(Cc2ccccc2)CC1 [Compound 1, 4-chloro-5-[3-(4-benzylpiperazin-1-yl)carbonylmethoxy-4-methoxybenzylamino]-3(2H)-pyridazinone]
- AUC (0-.infin.) [4]: 844.3 ng·h/mL
- Cmax [4]: 249.7 ng/mL

SMILES: COc1ccc(CNc2cn[nH]c(=O)c2Cl)cc1OCC(=O)N1CCN(Cc2ccccc2)CC1 [Compound 2, 3/2-Hydrochloride of 4-chloro-5-[3-(4-benzylpiperazin-1-yl)carbonylmethoxy-4-methoxybenzylamino]-3 (2H) -pyridazinone]
- AUC (0-.infin.) [4]: 1998.3 ng·h/mL
- Cmax [4]: 1349.0 ng/mL
- area under the curve (AUC) of time-concentration in blood (0-.infin.), times more preferable as compared with the compound (1) [4, 5]: 2.3 times
- maximum concentration in blood (Cmax), times higher as compared with the compound (1) [4, 5]: 5.4 times
- Water content ([2]; Time 0): 2.03%
- Increased decomposed material content ([2]; Time 1): 0.06%
- Water content ([2]; Time 1): 2.42%
- Increased decomposed material content ([2]; Time 24): 0.17%
- Water content ([2]; Time 24): 2.34%
- Increased decomposed material content ([2]; Time 48): 0.18%
- Water content ([2]; Time 48): 2.57%
- pharmaceutical effect [3]: equivalent to that of 2-hydrochloride
